From US12281125B2, “Rapamycin derivatives” (NOVARTIS AG, priority 2018, dated 2025)

Experiments:
[1] = tested on: mTORC1 activity, S6K1 (Thr389) in FKBP12/12.6/25/52/51 knock-out 293T cells; assay: S6K1(Thr389) phosphorylation ELISA in FKBP12/12.6/25/52/51 knock-out 293T cells; assay type: cell-based
Source text: (§1) A CRISPR/Cas9 system was used to deliver ribonucleoprotein complexes containing guide RNA (gRNA) sequences that target FKBP12
(§2) ([…], location 35620248) into 293T cells, using the Amaxa® 4D-Nucleofector™ X Kit (Lonza, V4XC-2032). Cell clones were screened by immunoblotting with anti-FKBP-specific antibodies: FKBP12 (Novus, NB300-508), FKBP12.6 (Abnova, H00002281-M01), FKBP13 (R&D Systems, MAB4356), FKBP25 (R&D Systems, MAB3955), FKBP52 (Cell signaling Technology, #11826) and FKBP51 (Cell signaling Technology, #12210). […] Quintuple FKBP12/12.6/13/52/51 knock-out and FKBP12/12.6/25/52/51 knock-out cells were generated by sequentially knocking out five FKBP genes.
(§3) WT, FKBP12 knock-out, FKBP12/12.6/13/52/51 knock-out or FKBP12/12.6/25/52/51 knock-out 293T cells were plated at a density of 30,000 cells per well in poly-D-Lysine coated 96-well plates (Corning, #354461) in Dulbecco's modified Eagle's medium (ThermoFisher, #11995-065) supplemented with 10% fetal bovine serum (ThermoFisher, #16140-071). Cells were incubated at 37° C., 5% CO2 for 48 hours until they reached ˜80% confluence. […] Media supplemented with blank Dimethyl sulfoxide (DMSO) was used as a control for both compounds. Phosphorylated amounts of S6K1 (Thr389) were detected by a sandwich ELISA kit (Cell signaling, #7063C) following the manufacture's protocol.

[2] = tested on: mTORC1 activity, S6K1 (Thr389) in WT 293T cells; assay: S6K1(Thr389) phosphorylation ELISA in wild-type 293T cells; assay type: cell-based; conditions: 2 hours
Experimental: as §3
S6K1 is a downstream target of mTORC1 and phosphorylation of its rapalog-sensitive Thir389 site is used as a functional readout of mTORC1 activity (Lee, C. H., Inoki, K. and Guan, K. L. (2007). mTOR pathway as a target in tissue hypertrophy. Annu. Rev. Pharmacol. Toxicol. 47, 443-467).

[3] = tested on: mTORC1 activity, S6K1 (Thr389) in FKBP12 knock-out 293T cells; assay: S6K1(Thr389) phosphorylation ELISA in FKBP12 knock-out 293T cells; assay type: cell-based; conditions: 2 hours
Source text: as §1, §2, §3

[4] = biological target: T1, FKBP52-rapalog-mTOR (amino acids 2019-2112) ternary complex (Homo sapiens, UniProt P42345+Q02790); assay: SPR ternary complex formation, rapalog bound to FKBP52 with mTOR; assay type: binding; conditions: rapalog bound to FKBP with mTOR, read-out: FKBP52 apparent affinity KD for ternary complex formation
T1 construct: his^6-mTOR (amino acids 2019-2112) was diluted in buffer; made in house; host or cells: E. coli
Experimental: (§4) N-terminal avi-his6-tagged FKBP fusion proteins were expressed in E. coli and purified with nickel chromatography using standard procedures. Biotinylated his-avi-FKBPs were immobilized on a streptavidin chip using a Biacore 8K (GE Healthcare). To determine the kinetics-affinity of the rapalogs for FKBPs, rapalogs were diluted in DMSO to 50× working concentration. Next, 3.1 uLs of each rapalog solution was added to 150 uLs of buffer (50 mM Tris pH 7.5/150 mM NaCl/0.01% Tween 20/1 mM DTT) in a 384 deep well plate (greiner bio-one/78127) and mixed using a Biomek FX. The rapalog solution gradients (6 concentrations/2 fold dilutions, 3.1-100 nM or 31-1000 nM or 310-10000 nM) were then injected at 45 uL/min for 120 seconds: contact time and dissociation time was 1800 seconds in running buffer (50 mM Tris pH 7.5/150 mM NaCl/0.01% Tween 20/1 mM DTT/2% DMSO). The single-cycle kinetics data were fit to a 1:1 binding model to measure the association rate ka (1/Ms), the dissociation rate kd (1/s) and the affinity KD (M). […] 3.1 uLs of the 500 μM rapalog solutions were added to 150 uLs of the mTOR samples in a 384 deep well plate (greiner bio-one/78127) and mixed using a Biomek FX. The mTOR solution gradients were then injected at 45 uL/min for 120 seconds: contact time and dissociation time was 1800 seconds in running buffer (50 mM Tris pH 7.5/150 mM NaCl/0.01% Tween 20/1 mM DTT/2% DMSO). […]

[5] = biological target: T2, FKBP13-rapalog-mTOR (amino acids 2019-2112) ternary complex (Homo sapiens, UniProt P26885+P42345); assay: SPR ternary complex formation, rapalog bound to FKBP13 with mTOR; assay type: binding; conditions: rapalog bound to FKBP with mTOR, read-out: FKBP13 apparent affinity KD for ternary complex formation
T2 construct: his^6-mTOR (amino acids 2019-2112) was diluted in buffer; made in house; host or cells: E. coli
Experimental: as §4

FKBP52 = biological target: T3, FKBP52 (Homo sapiens, UniProt Q02790); assay: SPR assay, binding affinity to FKBP52; conditions: equilibrium dissociation constant
T3 construct: made in house; host or cells: E. coli
T3 sequence (Q02790 1-459): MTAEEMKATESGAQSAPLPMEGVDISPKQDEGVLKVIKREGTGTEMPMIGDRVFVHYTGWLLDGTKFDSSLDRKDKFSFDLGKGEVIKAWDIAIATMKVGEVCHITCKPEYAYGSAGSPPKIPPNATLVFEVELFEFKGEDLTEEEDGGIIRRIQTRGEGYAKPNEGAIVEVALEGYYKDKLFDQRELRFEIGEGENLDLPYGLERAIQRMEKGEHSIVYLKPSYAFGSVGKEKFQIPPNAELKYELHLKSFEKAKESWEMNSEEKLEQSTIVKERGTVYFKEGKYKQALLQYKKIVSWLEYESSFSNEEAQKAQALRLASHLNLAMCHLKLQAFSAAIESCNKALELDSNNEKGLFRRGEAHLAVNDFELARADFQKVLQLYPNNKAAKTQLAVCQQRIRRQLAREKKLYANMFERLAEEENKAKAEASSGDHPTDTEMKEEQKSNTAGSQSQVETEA
Experimental: N-terminal avi-his6-tagged FKBP fusion proteins were expressed in E. coli and purified with nickel chromatography using standard procedures. Biotinylated his-avi-FKBPs were immobilized on a streptavidin chip using a Biacore 8K (GE Healthcare). To determine the kinetics-affinity of the rapalogs for FKBPs, rapalogs were diluted in DMSO to 50× working concentration. Next, 3.1 uLs of each rapalog solution was added to 150 uLs of buffer (50 mM Tris pH 7.5/150 mM NaCl/0.01% Tween 20/1 mM DTT) in a 384 deep well plate (greiner bio-one/78127) and mixed using a Biomek FX. The rapalog solution gradients (6 concentrations/2 fold dilutions, 3.1-100 nM or 31-1000 nM or 310-10000 nM) were then injected at 45 uL/min for 120 seconds: contact time and dissociation time was 1800 seconds in running buffer (50 mM Tris pH 7.5/150 mM NaCl/0.01% Tween 20/1 mM DTT/2% DMSO). The single-cycle kinetics data were fit to a 1:1 binding model to measure the association rate ka (1/Ms), the dissociation rate kd (1/s) and the affinity KD (M). […] 3.1 uLs of the 500 μM rapalog solutions were added to 150 uLs of the mTOR samples in a 384 deep well plate (greiner bio-one/78127) and mixed using a Biomek FX. The mTOR solution gradients were then injected at 45 uL/min for 120 seconds: contact time and dissociation time was 1800 seconds in running buffer (50 mM Tris pH 7.5/150 mM NaCl/0.01% Tween 20/1 mM DTT/2% DMSO). The single-cycle kinetics data was fit to a 1:1 binding model to measure the association rate ka (1/Ms), the dissociation rate kd (1/s) and the apparent affinity KD (M) for ternary complex formation.
The equilibrium dissociation constants (KD) to FKBP12, FKBP51, and FKBP52 are shown below in Table 6.

[6] = biological target: T4, FKBP12-rapalog-mTOR (amino acids 2019-2112) ternary complex (Homo sapiens, UniProt P42345+P62942); assay: SPR ternary complex formation, rapalog bound to FKBP12 with mTOR; assay type: binding; conditions: rapalog bound to FKBP with mTOR, read-out: FKBP12 apparent affinity KD for ternary complex formation
T4 construct: his^6-mTOR (amino acids 2019-2112) was diluted in buffer; made in house; host or cells: E. coli
Experimental: as §4

[7] = biological target: T5, FKBP51-rapalog-mTOR (amino acids 2019-2112) ternary complex (Homo sapiens, UniProt P42345+Q13451); assay: SPR ternary complex formation, rapalog bound to FKBP51 with mTOR; assay type: binding; conditions: rapalog bound to FKBP with mTOR, read-out: FKBP51 apparent affinity KD for ternary complex formation
T5 construct: his^6-mTOR (amino acids 2019-2112) was diluted in buffer; made in house; host or cells: E. coli
Experimental: as §4

T4 sequence (P62942 whole entry, the tested form may be a part): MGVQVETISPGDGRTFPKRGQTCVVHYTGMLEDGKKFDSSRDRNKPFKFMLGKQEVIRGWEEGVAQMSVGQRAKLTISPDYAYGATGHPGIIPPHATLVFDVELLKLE
T4 sequence (P42345 2019-2112 limits assumed): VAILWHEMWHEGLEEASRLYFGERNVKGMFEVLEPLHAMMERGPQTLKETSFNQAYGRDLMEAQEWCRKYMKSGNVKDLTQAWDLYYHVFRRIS
T5 sequence (Q13451 whole entry, the tested form may be a part): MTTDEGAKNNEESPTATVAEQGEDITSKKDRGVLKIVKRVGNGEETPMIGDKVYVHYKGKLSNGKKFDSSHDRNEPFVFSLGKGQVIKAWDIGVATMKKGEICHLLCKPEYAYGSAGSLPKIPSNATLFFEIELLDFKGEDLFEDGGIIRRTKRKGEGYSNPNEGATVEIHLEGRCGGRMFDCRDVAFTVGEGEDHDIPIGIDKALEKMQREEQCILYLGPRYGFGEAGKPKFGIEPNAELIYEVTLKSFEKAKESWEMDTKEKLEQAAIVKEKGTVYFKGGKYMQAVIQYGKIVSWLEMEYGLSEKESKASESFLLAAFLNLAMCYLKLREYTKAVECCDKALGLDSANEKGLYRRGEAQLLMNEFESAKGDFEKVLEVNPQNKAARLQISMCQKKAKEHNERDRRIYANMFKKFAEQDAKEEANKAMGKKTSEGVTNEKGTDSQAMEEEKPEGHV
T5 sequence (P42345 2019-2112 limits assumed): as the sequence (P42345 2019-2112 limits assumed) above
T1 sequence (P42345 2019-2112 limits assumed, one chain of several): as the sequence (P42345 2019-2112 limits assumed) above
T2 sequence (P26885 22-142): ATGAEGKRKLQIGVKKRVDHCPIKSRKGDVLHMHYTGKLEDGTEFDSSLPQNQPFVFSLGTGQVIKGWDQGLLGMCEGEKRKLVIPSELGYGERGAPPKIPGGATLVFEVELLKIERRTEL
T2 sequence (P42345 2019-2112 limits assumed): as the sequence (P42345 2019-2112 limits assumed) above

Structure (SMILES)	inhibitory effect (potency) on S6K1 (Thr389), in words [1]	inhibition of S6K1(Thr389) phosphorylation [2] [%]	de-phosphorylation of S6K1(Thr389) [3] [%]	Kd [4] [nM]	Kd [5] [nM]	Kd (FKBP52) [nM]	Kd [6] [nM]	Kd [7] [nM]
CO[C@@H]1C[C@H](C[C@@H](C)[C@@H]2CC[C@H](C)/C=C(\C)[C@@H](O)[C@@H](OC)C(=O)[C@H](C)C[C@H](C)/C=C/C=C/C=C(\C)[C@@H](NS(C)(=O)=O)C[C@@H]3CC[C@@H](C)[C@@](O)(O3)C(=O)C(=O)N3CCCC[C@H]3C(=O)O2)CC[C@H]1O [Compound 2]	neither RAD001 nor Compound 2 were efficacious	~80	~70	36	127	374	25	52
CO[C@H]1C[C@@H]2CC[C@@H](C)[C@@](O)(O2)C(=O)C(=O)N2CCCC[C@H]2C(=O)O[C@H]([C@H](C)C[C@@H]2CC[C@@H](OCCO)[C@H](OC)C2)CC(=O)[C@H](C)/C=C(\C)[C@@H](O)[C@@H](OC)C(=O)[C@H](C)C[C@H](C)/C=C/C=C/C=C/1C [RAD001, everolimus, reference compound]	neither RAD001 nor Compound 2 were efficacious	~80	~40	253	21	1770	21	348
